# Results: US10738028B2, “Spiro three-membered ring, spiro five-membered ring peptide deformylase inhibitor and use thereof in antibacteria and anti-tumor” (priority 2016, dated 2020)
# Columns and labels:
# Format in all cases: cell-based
# [1] = tested on: Enterococcus faecalis (EFA); experiment: MIC, two-fold agar dilution (CLSI), clinical isolates
# Outline: (§1)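 MIC values come from two-fold agar dilution run per CLSI antimicrobial susceptibility testing procedure.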
# [2] = tested on: Enterococcus faecium (EFM); experiment: as above
# Outline: as §1
# [3] = tested on: Escherichia coli (including ESBLs, non-ESBLs); experiment: as above
# Outline: as §1
# [4] = tested on: Moraxella catarrhalis (BCA); experiment: as above
# Outline: as §1
# [5] = tested on: Streptococcus pneoumoniae (SPN); experiment: as above
# Outline: as §1
# [6] = tested on: methicillin-resistant Staphylococcus aureus (MRSA); experiment: as above
# Outline: as §1
# [7] = tested on: methicillin-resistant Staphylococcus epidermidis (MRSE); experiment: as above
# Outline: as §1
# [8] = tested on: methicillin-sensitive Staphylococcus aureus (MSSA); experiment: as above
# Outline: as §1
# [9] = tested on: methicillin-sensitive Staphylococcus epidermidis (MSSE); experiment: as above
# Outline: as §1
# [10] = tested on: HCT-116 colorectal cancer cell line; experiment: CCK-8 proliferation inhibition; details: Homo sapiens, HCT-116, 72 h, concentration of 30 μM; 72 hours; CCK-8; read-out: HCT116 inhibition rate/%
# Outline: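 HCT-116 cells, seeded at 2000 cells/well in McCoy's 5A with 10% newborn bovine serum, were cultured overnight at 37° C., 5% CO2, then exposed to compound dilutions in medium for 72 hours. Viability was read with 1:10 diluted CCK-8; controls received 1‰ DMSO.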
structure (smiles),measurement,setting,value
"CCCC[C@H](CC(=O)NO)C(=O)N1CC2(CC2)C[C@H]1C(=O)Nc1ncc(C)s1 [Example 47, (S)-5-((R)-2-(2-(hydroxyamino)-2-oxoethyl)hexanoyl)-N-(5-methylthiazol-2-yl)-5-azaspiro[2.4]heptane-6-amide]","Anti-bacterial activity (MIC), strain EFA 15-1",[1]; clinical isolate EFA 15-1,> 32 µg/mL
same,"Anti-bacterial activity (MIC), strain EFA 15-2",[1]; clinical isolate EFA 15-2,> 32 µg/mL
same,"Anti-bacterial activity (MIC), strain EFA 15-3",[1]; clinical isolate EFA 15-3,> 32 µg/mL
same,"Anti-bacterial activity (MIC), strain EFA 15-4",[1]; clinical isolate EFA 15-4,> 32 µg/mL
same,"Anti-bacterial activity (MIC), strain EFA 15-5",[1]; clinical isolate EFA 15-5,> 32 µg/mL
same,"Anti-bacterial activity (MIC), strain EFA 15-6",[1]; clinical isolate EFA 15-6,> 32 µg/mL
same,"Anti-bacterial activity (MIC), strain EFA 15-9",[1]; clinical isolate EFA 15-9,4 µg/mL
same,"Anti-bacterial activity (MIC), strain EFM 15-1",[2]; clinical isolate EFM 15-1,> 32 µg/mL
same,"Anti-bacterial activity (MIC), strain EFM 15-2",[2]; clinical isolate EFM 15-2,> 32 µg/mL
same,"Anti-bacterial activity (MIC), strain EFM 15-3",[2]; clinical isolate EFM 15-3,> 32 µg/mL
same,"Anti-bacterial activity (MIC), strain EFM 15-4",[2]; clinical isolate EFM 15-4,> 32 µg/mL
same,"Anti-bacterial activity (MIC), strain EFM 15-5",[2]; clinical isolate EFM 15-5,0.25 µg/mL
same,"Anti-bacterial activity (MIC), strain EFM 15-6",[2]; clinical isolate EFM 15-6,1 µg/mL
same,"Anti-bacterial activity (MIC), strain ECO+ 15-1",[3]; clinical isolate ECO+ 15-1,32 µg/mL
same,"Anti-bacterial activity (MIC), strain ECO+ 15-2",[3]; clinical isolate ECO+ 15-2,> 32 µg/mL
same,"Anti-bacterial activity (MIC), strain ECO+ 15-3",[3]; clinical isolate ECO+ 15-3,> 32 µg/mL
same,"Anti-bacterial activity (MIC), strain ECO+ 15-4",[3]; clinical isolate ECO+ 15-4,0.5 µg/mL
same,"Anti-bacterial activity (MIC), strain ECO− 15-1",[3]; clinical isolate ECO− 15-1,> 32 µg/mL
same,"Anti-bacterial activity (MIC), strain ECO− 15-2",[3]; clinical isolate ECO− 15-2,> 32 µg/mL
same,"Anti-bacterial activity (MIC), strain ECO− 15-3",[3]; clinical isolate ECO− 15-3,> 32 µg/mL
same,"Anti-bacterial activity (MIC), strain ECO− 15-4",[3]; clinical isolate ECO− 15-4,> 32 µg/mL
same,"Anti-bacterial activity (MIC), strain BCA 14-1",[4]; clinical isolate BCA 14-1,4 µg/mL
same,"Anti-bacterial activity (MIC), strain BCA 14-4",[4]; clinical isolate BCA 14-4,4 µg/mL
same,"Anti-bacterial activity (MIC), strain BCA 14-5",[4]; clinical isolate BCA 14-5,0.25 µg/mL
same,"Anti-bacterial activity (MIC), strain BCA 14-6",[4]; clinical isolate BCA 14-6,2 µg/mL
same,"Anti-bacterial activity (MIC), strain BCA 14-7",[4]; clinical isolate BCA 14-7,2 µg/mL
same,"Anti-bacterial activity (MIC), strain BCA 14-8",[4]; clinical isolate BCA 14-8,1 µg/mL
same,"Anti-bacterial activity (MIC), strain BCA 14-10",[4]; clinical isolate BCA 14-10,0.5 µg/mL
same,"Anti-bacterial activity (MIC), strain SPN 16-2",[5]; clinical isolate SPN 16-2,0.5 µg/mL
same,"Anti-bacterial activity (MIC), strain SPN 16-4",[5]; clinical isolate SPN 16-4,0.5 µg/mL
same,"Anti-bacterial activity (MIC), strain MRSA 15-1",[6]; clinical isolate MRSA 15-1,0.25 µg/mL
same,"Anti-bacterial activity (MIC), strain MRSA 15-2",[6]; clinical isolate MRSA 15-2,0.5 µg/mL
same,"Anti-bacterial activity (MIC), strain MRSA 15-3",[6]; clinical isolate MRSA 15-3,0.25 µg/mL
same,"Anti-bacterial activity (MIC), strain MRSA 15-4",[6]; clinical isolate MRSA 15-4,0.5 µg/mL
same,"Anti-bacterial activity (MIC), strain MRSE 15-1",[7]; clinical isolate MRSE 15-1,0.5 µg/mL
same,"Anti-bacterial activity (MIC), strain MRSE 15-2",[7]; clinical isolate MRSE 15-2,0.5 µg/mL
same,"Anti-bacterial activity (MIC), strain MRSE 15-3",[7]; clinical isolate MRSE 15-3,0.5 µg/mL
same,"Anti-bacterial activity (MIC), strain MRSE 15-7",[7]; clinical isolate MRSE 15-7,0.5 µg/mL
same,"Anti-bacterial activity (MIC), strain MSSA 15-3",[8]; clinical isolate MSSA 15-3,0.5 µg/mL
same,"Anti-bacterial activity (MIC), strain MSSA 15-4",[8]; clinical isolate MSSA 15-4,0.5 µg/mL
same,"Anti-bacterial activity (MIC), strain MSSA 15-5",[8]; clinical isolate MSSA 15-5,0.5 µg/mL
same,"Anti-bacterial activity (MIC), strain MSSA 15-6",[8]; clinical isolate MSSA 15-6,> 32 µg/mL
same,"Anti-bacterial activity (MIC), strain MSSE 15-3",[9]; clinical isolate MSSE 15-3,0.5 µg/mL
same,"Anti-bacterial activity (MIC), strain MSSE 15-4",[9]; clinical isolate MSSE 15-4,0.5 µg/mL
same,"Anti-bacterial activity (MIC), strain MSSE 15-5",[9]; clinical isolate MSSE 15-5,0.5 µg/mL
same,"Anti-bacterial activity (MIC), strain MSSE 15-6",[9]; clinical isolate MSSE 15-6,0.5 µg/mL
same,inhibition at 30 µM,[10],20%
